From publication PMC8142146 (Bioorganic chemistry, 2020)
Read-outs that look alike come from different tables or passages of the source.

Assays:
[1] = biological target: T1, PARP1 (Homo sapiens, UniProt P09874); experiment: in vitro PARP1 enzyme assay; conditions: for inhibition at 5 µM: read-out: PARP1 inhibition at 5 μM; for fold improvement in PARP1 activity compared to lead 4: vs unsubstituted lead 4 (IC50 = 5.8 μM)
[2] = biological target: T1, PARP1; conditions: read-out: PARP1 IC50, literature value; cited from earlier work
[3] = biological target: T1, PARP1; experiment: BPS PARP1 Chemiluminescent Activity Assay Kit; assay type: biochemical

T1 sequence (P09874 whole entry): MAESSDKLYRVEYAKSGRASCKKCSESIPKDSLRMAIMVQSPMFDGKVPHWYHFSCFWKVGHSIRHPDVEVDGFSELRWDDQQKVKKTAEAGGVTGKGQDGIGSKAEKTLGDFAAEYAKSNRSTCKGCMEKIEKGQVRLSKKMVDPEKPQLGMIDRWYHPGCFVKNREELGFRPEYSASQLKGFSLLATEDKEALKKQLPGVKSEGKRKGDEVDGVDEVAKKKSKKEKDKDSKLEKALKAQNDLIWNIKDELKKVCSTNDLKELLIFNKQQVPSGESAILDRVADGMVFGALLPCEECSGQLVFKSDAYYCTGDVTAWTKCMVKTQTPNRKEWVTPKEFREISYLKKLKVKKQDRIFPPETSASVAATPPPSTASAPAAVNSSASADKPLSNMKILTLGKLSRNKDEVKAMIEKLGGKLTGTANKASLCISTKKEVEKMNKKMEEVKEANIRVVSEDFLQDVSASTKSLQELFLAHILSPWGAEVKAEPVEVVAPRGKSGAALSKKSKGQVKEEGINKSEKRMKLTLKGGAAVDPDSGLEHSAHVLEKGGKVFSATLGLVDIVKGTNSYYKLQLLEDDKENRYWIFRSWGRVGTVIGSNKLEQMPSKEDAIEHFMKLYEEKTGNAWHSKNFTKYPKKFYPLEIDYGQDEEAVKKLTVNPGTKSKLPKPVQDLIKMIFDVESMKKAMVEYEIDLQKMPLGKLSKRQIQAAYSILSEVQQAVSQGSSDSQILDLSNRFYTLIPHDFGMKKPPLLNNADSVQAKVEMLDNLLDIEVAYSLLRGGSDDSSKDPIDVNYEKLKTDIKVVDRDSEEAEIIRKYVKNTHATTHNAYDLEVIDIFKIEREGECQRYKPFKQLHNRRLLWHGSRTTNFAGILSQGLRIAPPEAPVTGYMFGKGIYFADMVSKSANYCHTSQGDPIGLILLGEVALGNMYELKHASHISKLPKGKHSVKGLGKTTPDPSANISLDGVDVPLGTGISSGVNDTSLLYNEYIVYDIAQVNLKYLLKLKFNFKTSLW

Compound	inhibition at 5 µM [1] [%]	also measured
CN1CCN(C[C@@H]2COc3cccc(C(N)=O)c3O2)CC1 [Compound 22b, (R)-3-((4-Methylpiperazin-1-yl)methyl)-2,3-dihydrobenzo[b][1,4]dioxine-5-carboxamide]	< 20	
CS(=O)(=O)OC[C@@H]1COc2cccc(C(N)=O)c2O1 [Compound 21b, (S)-(8-Carbamoyl-2,3-dihydrobenzo[b][1,4]dioxin-2-yl)methyl methanesulfonate]		fold improved PARP1 activity over 25a ([1]; vs hydroxymethyl precursor 25a): ~ 10 fold; fold improvement in PARP1 activity compared to lead 4 [1]: ~ 8 fold
CN1CCN(C[C@H]2COc3c(cccc3C(N)=O)O2)CC1 [Compound 22a, (S)-2-((4-Methylpiperazin-1-yl)methyl)-2,3-dihydrobenzo[b][1,4]dioxine-5-carboxamide]	< 20	
NC(=O)c1cccc2c1OCO2 [Compound 31, Benzo[d][1,3]dioxole-4-carboxamide]		IC50 [2]: 5.3 µM
NC(=O)c1cccc2c1OCCCO2 [Compound 32, 3,4-Dihydro-2H-benzo[b][1,4]dioxepine-6-carboxamide]		inhibition at 2.5 µM ([1]; read-out: PARP1 inhibition at 2.5 μM): 15%
NC(=O)c1cccc2c1O/C(=C\c1ccc(C(=O)O)cc1)C(=O)N2 [Compound 50, (Z)-2-(4-Carboxybenzylidene)-3-oxo-3,4-dihydro-2H-benzo[b][1,4]oxazine-8-carboxamide]		IC50 [3]: 420 ± 46 nM
NC(=O)c1cccc2c1OCC(=O)N2 [Compound 45, 3-Oxo-3,4-dihydro-2H-benzo[b][1,4]oxazine-8-carboxamide]		fold enhanced PARP1 activity in comparison to 44 ([1]; vs 44): 15 fold
CS(=O)(=O)OC[C@H]1COc2cccc(C(N)=O)c2O1 [Compound 26b, (R)-(8-Carbamoyl-2,3-dihydrobenzo[b][1,4]dioxin-2-yl)methyl methanesulfonate]		fold improvement in PARP1 activity compared to lead 4 [1]: ~ 5 fold
NC(=O)c1cccc2c1OCCN2 [Compound 44, 3,4-Dihydro-2H-benzo[b][1,4]oxazine-8-carboxamide]		fold less potent than 4 (PARP1) ([1]; vs 4): ~ 2 fold

The next lines start with results.

inhibition at 5 µM [1] [%]	Compound	also measured
< 20	CN1CCN(C[C@@H]2COc3c(cccc3C(N)=O)O2)CC1 [Compound 27a, (R)-2-((4-Methylpiperazin-1-yl)methyl)-2,3-dihydrobenzo[b][1,4]dioxine-5-carboxamide]	
< 20	NC(=O)c1cccc2c1OC[C@@H](CN1CCN(c3ncccn3)CC1)O2 [Compound 28a, (R)-2-((4-(Pyrimidin-2-yl)piperazin-1-yl)methyl)-2,3-dihydrobenzo[b][1,4]dioxine-5-carboxamide]	
< 20	NC(=O)c1cccc2c1OC[C@H](CN1CCN(c3ncccn3)CC1)O2 [Compound 23a, (S)-2-((4-(Pyrimidin-2-yl)piperazin-1-yl)methyl)-2,3-dihydrobenzo[b][1,4]dioxine-5-carboxamide]	
< 20	NC(=O)c1cccc2c1O[C@H](CN1CCN(c3ncccn3)CC1)CO2 [Compound 23b, (R)-3-((4-(Pyrimidin-2-yl)piperazin-1-yl)methyl)-2,3-dihydrobenzo[b][1,4]dioxine-5-carboxamide]	
< 20	CN1CCN(C[C@H]2COc3cccc(C(N)=O)c3O2)CC1 [Compound 27b, (S)-3-((4-Methylpiperazin-1-yl)methyl)-2,3-dihydrobenzo[b][1,4]dioxine-5-carboxamide]	
< 20	NC(=O)c1cccc2c1O[C@@H](CN1CCN(c3ncccn3)CC1)CO2 [Compound 28b, (S)-3-((4-(Pyrimidin-2-yl)piperazin-1-yl)methyl)-2,3-dihydrobenzo[b][1,4]dioxine-5-carboxamide]	
